Test results: US9499535B2, “Kinase inhibitors” (ORIGENIS GMBH, priority 2011, dated 2016)

Experiments:
SYK kinase = biological target: T1, SYK kinase (Homo sapiens, UniProt P43405); assay: SYK assay (OMNIA Kinase Assay, Invitrogen); assay type: biochemical; details: apparent Ki calculated from the IC50 using the Cheng-Prusoff equation; 1 mM ATP, 10 μM Peptide Substrate; read-out: SYK Activities: Ki
T1 construct: purchased Invitrogen, Carlsbad
Summary of the method: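 Reaction velocities were measured from kinetic fluorescence reads (360/485 nm, every 30 s over 30 min) of Mg2+-chelated SOX signal. Conditions were 1 mM ATP, 10 μM Omnia Tyr 7 peptide and 0.2 mM DTT at 30° C. Sigmoidal IC50 fits were converted to apparent Ki using Cheng-Prusoff.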

LRRK2 = LRRK2 (Homo sapiens, UniProt Q5S007); assay: LRRK2 assay (LanthaScreen Eu Kinase Binding Assay); details: 5 nM LRRK2, 10 nM tracer 236, RT 1 h; read-out: LRRK2 Activites: IC50
Chain of LRRK2 (Q5S007 970-2527 limits assumed): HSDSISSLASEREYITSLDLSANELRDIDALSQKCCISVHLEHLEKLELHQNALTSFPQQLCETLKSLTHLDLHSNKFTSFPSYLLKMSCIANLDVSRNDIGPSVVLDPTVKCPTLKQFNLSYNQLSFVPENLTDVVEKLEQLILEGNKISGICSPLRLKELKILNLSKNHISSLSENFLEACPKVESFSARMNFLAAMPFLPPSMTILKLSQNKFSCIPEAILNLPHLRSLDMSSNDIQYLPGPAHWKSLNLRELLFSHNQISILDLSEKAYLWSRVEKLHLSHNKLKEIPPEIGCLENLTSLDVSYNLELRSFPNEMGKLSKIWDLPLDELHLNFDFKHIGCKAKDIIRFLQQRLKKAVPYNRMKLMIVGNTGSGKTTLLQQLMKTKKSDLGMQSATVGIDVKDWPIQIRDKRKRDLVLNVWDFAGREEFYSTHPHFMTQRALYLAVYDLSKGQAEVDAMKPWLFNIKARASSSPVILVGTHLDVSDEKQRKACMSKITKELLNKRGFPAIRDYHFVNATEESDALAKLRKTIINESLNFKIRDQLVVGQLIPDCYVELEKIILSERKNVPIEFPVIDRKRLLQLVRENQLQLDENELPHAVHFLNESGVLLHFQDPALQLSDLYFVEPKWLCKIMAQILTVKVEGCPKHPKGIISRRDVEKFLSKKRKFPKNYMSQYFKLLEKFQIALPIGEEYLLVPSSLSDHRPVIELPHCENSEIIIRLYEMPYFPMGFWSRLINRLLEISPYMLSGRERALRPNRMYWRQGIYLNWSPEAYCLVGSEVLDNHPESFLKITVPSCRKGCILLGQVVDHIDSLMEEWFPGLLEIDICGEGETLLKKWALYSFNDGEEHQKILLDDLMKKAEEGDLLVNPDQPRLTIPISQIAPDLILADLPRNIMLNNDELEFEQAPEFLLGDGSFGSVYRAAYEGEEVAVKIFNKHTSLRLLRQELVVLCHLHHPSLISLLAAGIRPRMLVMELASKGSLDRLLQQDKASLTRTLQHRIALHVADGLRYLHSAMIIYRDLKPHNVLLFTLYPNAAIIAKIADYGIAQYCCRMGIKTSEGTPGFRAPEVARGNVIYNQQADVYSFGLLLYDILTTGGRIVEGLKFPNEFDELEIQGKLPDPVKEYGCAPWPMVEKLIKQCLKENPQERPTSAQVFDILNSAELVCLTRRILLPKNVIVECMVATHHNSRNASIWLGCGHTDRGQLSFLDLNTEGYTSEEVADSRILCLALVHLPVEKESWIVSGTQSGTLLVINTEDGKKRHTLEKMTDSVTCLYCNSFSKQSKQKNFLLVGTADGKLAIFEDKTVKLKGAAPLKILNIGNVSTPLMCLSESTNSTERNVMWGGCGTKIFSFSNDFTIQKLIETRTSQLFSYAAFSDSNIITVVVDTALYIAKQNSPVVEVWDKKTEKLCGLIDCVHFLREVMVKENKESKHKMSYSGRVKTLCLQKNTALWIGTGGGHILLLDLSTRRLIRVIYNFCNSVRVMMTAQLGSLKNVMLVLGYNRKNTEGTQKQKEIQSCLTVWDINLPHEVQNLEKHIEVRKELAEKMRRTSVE
Excerpt: Binding of the tracer to the kinase is detected using a europium-labeled anti-tag antibody, which binds to the kinase of interest. […] Binding of an inhibitor to the kinase competes for binding with the tracer, resulting in a loss of FRET. The fluorescence intensity ratio is directly proportional to the amount of peptide phosphorylation.
The inhibitor concentration was plotted versus the emission ratio to determine the IC50 using XLFit 5.0 (IDBS, Guildford) to fit to a sigmoidal dose response curve with a variable slope.

| Compound | Ki (SYK kinase) [nM] | IC50 (LRRK2) [nM] |
| --- | --- | --- |
| COc1cc(Nc2nc3ccccc3c3c[nH]nc23)cc(OC)c1OC [Example #3, (2H-Pyrazolo[3,4-c]quinolin-4-yl)-(3,4,5-trimethoxy-phenyl)-amine] | 100 to 1000 | 100 to 1000 |
| COc1ccc2nc(Nc3ccc(OC)c(F)c3)c3n[nH]cc3c2c1 [Example #125, (3-Fluoro-4-methoxy-phenyl)-(8-methoxy-2H-pyrazolo[3,4-c]quinolin-4-yl)-amine] | 10 to 100 | 100 to 1000 |
| COc1ccc2nc(Nc3cc(C)n[nH]3)c3[nH]ncc3c2c1 [Example #96, (8-Methoxy-3H-pyrazolo[3,4-c]quinolin-4-yl)-(5-methyl-2H-pyrazol-3-yl)-amine] | 10 to 100 | 10 to 100 |
| COc1ccc2nc(Nc3ccc4c(c3)NCC(C)(C)S4)c3n[nH]cc3c2c1 [Example #88, (2,2-Dimethyl-3,4-dihydro-2H-benzo[1,4]thiazin-6-yl)-(8-methoxy-2H-pyrazolo[3,4-c]quinolin-4-yl)-amine] | 10 to 100 | < 10 |
| Brc1ccc2nc(Nc3cc[nH]n3)c3n[nH]cc3c2c1 [Example #119, (8-Bromo-2H-pyrazolo[3,4-c]quinolin-4-yl)-(1H-pyrazol-3-yl)-amine] | 100 to 1000 | 100 to 1000 |
| COc1ccc(Nc2nc3ccc(OC)cc3c3c[nH]nc23)cc1 [Example #61, (4-Methoxy-phenyl)-(8-methoxy-2H-pyrazolo[3,4-c]quinolin-4-yl)-amine] | 10 to 100 | 100 to 1000 |
| O=C1COc2ccc(Nc3nc4ccccc4c4cn[nH]c34)cc2N1 [Example #46, 6-(3H-Pyrazolo[3,4-c]quinolin-4-ylamino)-4H-benzo[1,4]oxazin-3-one] | 10 to 100 | 100 to 1000 |
| COc1ccc2nc(Nc3cc(-c4ccccc4)n[nH]3)c3n[nH]cc3c2c1 [Example #77, (8-Methoxy-2H-pyrazolo[3,4-c]quinolin-4-yl)-(5-phenyl-2H-pyrazol-3-yl)-amine] | 10 to 100 | < 10 |
| COc1ccc2nc(Nc3cc(C4CCC4)n[nH]3)c3n[nH]cc3c2c1 [Example #85, (5-Cyclobutyl-2H-pyrazol-3-yl)-(8-methoxy-2H-pyrazolo[3,4-c]quinolin-4-yl)-amine] | < 10 | < 10 |
| COc1ccc2nc(Nc3ccc(C)cc3)c3n[nH]cc3c2c1 [Example #244, (8-Methoxy-2H-pyrazolo[3,4-c]quinolin-4-yl)-p-tolyl-amine] | 10 to 100 | 100 to 1000 |
| COc1ccc2nc(Nc3ccc(N4CCSCC4)cc3)c3[nH]ncc3c2c1 [Example #107, (8-Methoxy-3H-pyrazolo[3,4-c]quinolin-4-yl)-(4-thiomorpholin-4-yl-phenyl)-amine] | 10 to 100 | 100 to 1000 |
| COc1ccc(Nc2nc3ccc(C#N)cc3c3c[nH]nc23)cc1OC [Example #216, 4-(3,4-Dimethoxy-phenylamino)-2H-pyrazolo[3,4-c]quinoline-8-carbonitrile] | 10 to 100 | 100 to 1000 |
| COCCOc1ccc(Nc2nc3ccc(OC)cc3c3cn[nH]c23)cc1 [Example #104, [4-(2-Methoxy-ethoxy)-phenyl]-(8-methoxy-3H-pyrazolo[3,4-c]quinolin-4-yl)-amine] | 10 to 100 | 100 to 1000 |
| COc1ccc2nc(Nc3ccc(N4CCOCC4)nc3)c3[nH]ncc3c2c1 [Example #103, (8-Methoxy-3H-pyrazolo[3,4-c]quinolin-4-yl)-(6-morpholin-4-yl-pyridin-3-yl)-amine] | 10 to 100 | 100 to 1000 |
| COc1ccc(Nc2nc3cccc(OC)c3c3c[nH]nc23)cc1OC [Example #200, (3,4-Dimethoxy-phenyl)-(9-methoxy-2H-pyrazolo[3,4-c]quinolin-4-yl)-amine] | 100 to 1000 | 100 to 1000 |
| COc1ccc2nc(Nc3ccc(N4CCS(=O)(=O)CC4)cc3)c3n[nH]cc3c2c1 [Example #111, [4-(1,1-Dioxo-1lambda-6-thiomorpholin-4-yl)-phenyl]-(8-methoxy-3H-pyrazolo[3,4-c]quinolin-4-yl)-amine] | 10 to 100 | 10 to 100 |
| COc1cc2nc(Nc3ccc(N(C)C)cc3)c3n[nH]cc3c2cc1OC [Example #135, N-(7,8-Dimethoxy-2H-pyrazolo[3,4-c]quinolin-4-yl)-N′,N′-dimethyl-benzene-1,4-diamine] | 10 to 100 | 100 to 1000 |
| COc1ccc2nc(Nc3ccc4c(c3)c(C)c(C)n4C)c3n[nH]cc3c2c1 [Example #138, (8-Methoxy-2H-pyrazolo[3,4-c]quinolin-4-yl)-(1,2,3-trimethyl-1H-indol-5-yl)-amine] | 100 to 1000 | 100 to 1000 |
| COc1ccc(Nc2nc3ccccc3c3c(C)[nH]nc23)cc1OC [Example #207, (3,4-Dimethoxy-phenyl)-(1-methyl-2H-pyrazolo[3,4-c]quinolin-4-yl)-amine] | 10 to 100 | 100 to 1000 |
| COc1ccc2c(c1)nc(Nc1ccc3c(c1)NCCO3)c1n[nH]cc12 [Example #173, (3,4-Dihydro-2H-benzo[1,4]oxazin-6-yl)-(7-methoxy-2H-pyrazolo[3,4-c]quinolin-4-yl)-amine] | 10 to 100 | 100 to 1000 |
| COc1ccc2nc(Nc3cc(C(C)(C)C)[nH]n3)c3[nH]ncc3c2c1 [Example #95, (5-tert-Butyl-1H-pyrazol-3-yl)-(8-methoxy-3H-pyrazolo[3,4-c]quinolin-4-yl)-amine] | 10 to 100 | 10 to 100 |

The next lines start with the values.

| Ki (SYK kinase) [nM] | IC50 (LRRK2) [nM] | Compound |
| --- | --- | --- |
| 10 to 100 | 10 to 100 | COc1ccc2nc(Nc3ccc4c(c3)N=C(NCCCO)CO4)c3n[nH]cc3c2c1 [Example #313, 3-((6-((8-methoxy-2H-pyrazolo[3,4-c]quinolin-4-yl)amino)-2H-benzo[b][1,4]oxazin-3-yl)amino)propan-1-ol] |
| 10 to 100 | 100 to 1000 | COc1ccc2nc(Nc3ccc(N4CCOCC4)c(OC)c3)c3n[nH]cc3c2c1 [Example #319, 8-methoxy-N-(3-methoxy-4-morpholinophenyl)-2H-pyrazolo[3,4-c]quinolin-4-amine] |
| 10 to 100 | 100 to 1000 | COc1ccc2nc(Nc3ccc(S(=O)(=O)N(C)C)cc3)c3n[nH]cc3c2c1 [Example #343, 4-((8-methoxy-2H-pyrazolo[3,4-c]quinolin-4-yl)amino)-N,N-dimethylbenzenesulfonamide] |
| 100 to 1000 | 100 to 1000 | COc1ccc(Nc2nc3cccc(F)c3c3cn[nH]c23)cc1OC [Example #361, N-(3,4-dimethoxyphenyl)-9-fluoro-3H-pyrazolo[3,4-c]quinolin-4-amine] |
| 10 to 100 | 100 to 1000 | COc1ccc2nc(Nc3ccc(F)cc3)c3n[nH]cc3c2c1 [Example #310, N-(4-fluorophenyl)-8-methoxy-2H-pyrazolo[3,4-c]quinolin-4-amine] |
| 10 to 100 | 100 to 1000 | CC(=O)N1CCN(c2ccc(Nc3nc4ccc(I)cc4c4cn[nH]c34)cc2)CC1 [Example #357, 1-(4-(4-((8-iodo-3H-pyrazolo[3,4-c]quinolin-4-yl)amino)phenyl)piperazin-1-yl)ethan-1-one] |
| 100 to 1000 | 100 to 1000 | COc1ccc2nc(Nc3ccc(CC(=O)O)cc3)c3n[nH]cc3c2c1 [Example #285, 2-(4-((8-methoxy-2H-pyrazolo[3,4-c]quinolin-4-yl)amino)phenyl)acetic acid] |
| 100 to 1000 | 100 to 1000 | COc1ccc2nc(Nc3ccc(NC(=O)C(F)(F)F)cc3)c3n[nH]cc3c2c1 [Example #312, 2,2,2-trifluoro-N-(4-((8-methoxy-2H-pyrazolo[3,4-c]quinolin-4-yl)amino)phenyl)acetamide] |
| 10 to 100 | 10 to 100 | COc1ccc2nc(Nc3ccc4c(c3)N=C(NCCc3ccccc3)CO4)c3n[nH]cc3c2c1 [Example #314, N6-(8-methoxy-2H-pyrazolo[3,4-c]quinolin-4-yl)-N3-phenethyl-2H-benzo[b][1,4]oxazine-3,6-diamine] |
| 10 to 100 | 100 to 1000 | COc1cccc2c1nc(Nc1ccc3c(c1)NC(=O)CO3)c1n[nH]cc12 [Example #250, 6-((6-methoxy-2H-pyrazolo[3,4-c]quinolin-4-yl)amino)-2H-benzo[b][1,4]oxazin-3(4H)-one] |
| 10 to 100 | 100 to 1000 | Fc1ccc2nc(Nc3ccc(N4CCOCC4)cc3)c3[nH]ncc3c2c1 [Example #325, 8-fluoro-N-(4-morpholinophenyl)-3H-pyrazolo[3,4-c]quinolin-4-amine] |
| 100 to 1000 | 100 to 1000 | O=C(c1ccc(Nc2nc3ccc(I)cc3c3cn[nH]c23)cc1)N1CCCC1 [Example #356, (4-((8-iodo-3H-pyrazolo[3,4-c]quinolin-4-yl)amino)phenyl)(pyrrolidin-1-yl)methanone] |
| 10 to 100 | 100 to 1000 | COc1cccc2c1nc(Nc1ccc(N3CCSCC3)cc1)c1n[nH]cc12 [Example #247, (6-Methoxy-2H-pyrazolo[3,4-c]quinolin-4-yl)-(4-thiomorpholin-4-yl-phenyl)-amine] |
| 10 to 100 | 100 to 1000 | COc1ccc2c(c1)nc(Nc1ccc3[nH]ncc3c1)c1n[nH]cc12 [Example #256, (1H-Indazol-5-yl)-(7-methoxy-2H-pyrazolo[3,4-c]quinolin-4-yl)-amine] |
| 10 to 100 | 100 to 1000 | COc1ccc2nc(Nc3cc(F)c(F)c(F)c3)c3n[nH]cc3c2c1 [Example #317, 8-methoxy-N-(3,4,5-trifluorophenyl)-2H-pyrazolo[3,4-c]quinolin-4-amine] |
